Experimental findings from the supplement of paper PMC8633005 are described below.

What all share (test): drug sensitivity score (DSS) (DSS (unitless, 0-50 scale)); higher = more sensitive (stronger viability inhibition); extreme values may be limits of the assay
Common to all, as to details: 72 h; culture: 2D

In experiment [1] the test system is WM852. The method in brief:
(§1)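 Viability was measured by CellTiter-Glo luminescence after 72 h at 37 °C in 384-well plates holding a 527-compound oncology library, with patient-derived melanoma cultures (1000–1500 cells per well) and melanoma cell lines grown in 2D. Every compound was tested at five concentrations spanning a 10,000-fold range. The drug sensitivity score, a modified area under the curve, came from dose-response curves fitted with in-house Breeze software.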

Experiment [2] deals with SK-MEL-2. Summed up:
as §1

Experiment [3] relates to FM-MEL-3. Summed up: as §1
Experiment [4] concerns Bowes. Summed up: as §1
Experiment [5] concerns FM-MEL-2. The method in brief:
as §1

Experiment [6] relates to SK-MEL-28. The method in brief:
as §1

The test system of experiment [7] is FM-MEL-6. The method in brief: as §1
The test system of experiment [8] is WM165. The method in brief:
as §1

Molecules are shown by their SMILES.

`CC(O)c1cc(C(=O)N[C@@H](C)Cn2ccc(-c3ccc(C#N)c(Cl)c3)n2)n[nH]1` (stereo partly specified) [ODM-201]: the drug sensitivity score in experiment [1] amounted to 0.2; in experiment [2] it was 0; in experiment [3], 2.8; in experiment [4], 1.3; in experiment [5], 0; in experiment [6] it was 0. Moreover, the drug sensitivity score worked out at 1.1 in experiment [7] and 0 in experiment [8].
Regarding `CC(=O)c1cnc2ccc(-c3cc(Cl)c(O)c(Cl)c3)nc2c1N[C@H]1CC[C@H](CN(C)C)CC1` [OTS167], the drug sensitivity score in experiment [1] was 10.5; in experiment [2], 11.4; in experiment [3], 19; in experiment [4] it was 15.4; in experiment [5], 9.5; in experiment [6] it was 14.3. Further, the drug sensitivity score came out at 8 in experiment [7] and 17.4 in experiment [8].
Regarding `O=C(c1cc(Cc2n[nH]c(=O)c3ccccc23)ccc1F)N1CCN(C(=O)C2CC2)CC1` [Olaparib], the drug sensitivity score in experiment [1] was determined as 3.9; in experiment [2], 0; in experiment [3] it was 0; in experiment [4], 0.4; in experiment [5], 0; in experiment [6], 1. Besides, the drug sensitivity score in experiment [7] is 0; in experiment [8] it was 7.5.
As to `C=CC(=O)Nc1cccc(Oc2nc(Nc3ccc(N4CCN(C)CC4)cc3)nc3ccsc23)c1` [Olmutinib], the drug sensitivity score was 0 in experiment [1]; 0 in experiment [2]; 0 in experiment [3]; 0.8 in experiment [4]; 0 in experiment [5]; 0 in experiment [6]. The drug sensitivity score in experiment [7] and in experiment [8] was 0 throughout.
Turning to `COC(=O)C[C@](O)(CCCC(C)(C)O)C(=O)O[C@@H]1C(OC)=C[C@]23CCCN2CCc2cc4c(cc2[C@H]13)OCO4` [Omacetaxine], the drug sensitivity score turned out to be 26.1 in experiment [1]; 18.2 in experiment [2]; 25.9 in experiment [3]; 29.1 in experiment [4]; 20.4 in experiment [5]; 22.4 in experiment [6]. Further, the drug sensitivity score in experiment [7] is 28.5; in experiment [8], 27.2.
With `CC1(C)CC[C@]2(NC(=O)C(C)(F)F)CC[C@]3(C)[C@H](C(=O)C=C4[C@@]5(C)C=C(C#N)C(=O)C(C)(C)[C@@H]5CC[C@]43C)[C@@H]2C1` [Omaveloxolone], the drug sensitivity score in experiment [1] came out at 11.3; in experiment [2] it was 15.7; in experiment [3], 17.4; in experiment [4] it was 18.2; in experiment [5], 11.2; in experiment [6] it was 15.5. In addition, the drug sensitivity score in experiment [7] is 13.9; in experiment [8], 20.3.
For `CC(C)c1cc(C(=O)N2Cc3ccc(CN4CCN(C)CC4)cc3C2)c(O)cc1O` [Onalespib], the drug sensitivity score in experiment [1] was 5.7; in experiment [2], 8; in experiment [3], 14.2; in experiment [4], 13.3; in experiment [5], 7.1; in experiment [6], 6.9. The drug sensitivity score turned out to be 4.2 in experiment [7] and 15 in experiment [8].
As to `COC[C@H](NC(=O)c1cnc(C)s1)C(=O)N[C@@H](COC)C(=O)N[C@@H](Cc1ccccc1)C(=O)[C@@]1(C)CO1` [Oprozomib], the drug sensitivity score in experiment [1] was 16.9; in experiment [2], 15.2; in experiment [3] it was 20.3; in experiment [4], 20.3; in experiment [5] it was 9.3; in experiment [6] it was 17. Further, the drug sensitivity score in experiment [7] amounted to 19.4; in experiment [8] it was 20.
As to `CNC(=O)c1ccc2cc([C@@]3(O)CCn4cncc43)ccc2c1` [Orteronel], the drug sensitivity score in experiment [1], in experiment [2], in experiment [3], in experiment [4], in experiment [5] and in experiment [6] was 0 each time. The drug sensitivity score in experiment [7] and in experiment [8] was 0 each time.
For the molecule `C=CC(=O)Nc1cc(Nc2nccc(-c3cn(C)c4ccccc34)n2)c(OC)cc1N(C)CCN(C)C` [Osimertinib], the drug sensitivity score is 3.5 in experiment [1]; 3.4 in experiment [2]; 2.7 in experiment [3]; 2.7 in experiment [4]; 3.2 in experiment [5]; 4 in experiment [6]. In addition, the drug sensitivity score is 4.6 in experiment [7] and 4.3 in experiment [8].
With `O=C(O)C(=O)O.[NH-][C@@H]1CCCC[C@H]1[NH-].[Pt+2]` [Oxaliplatin], the drug sensitivity score was 3.5 in experiment [1]; 4.3 in experiment [2]; 3.2 in experiment [3]; 5.8 in experiment [4]; 4.7 in experiment [5]; 7.3 in experiment [6]. The drug sensitivity score in experiment [7] was found to be 11.7; in experiment [8], 14.5.
On to `C=CCc1cccc(/C=N/NC(=O)CN2CCN(Cc3ccccc3)CC2)c1O` [PAC-1], for which the drug sensitivity score in experiment [1] worked out at 2.8; in experiment [2], 0; in experiment [3], 0; in experiment [4], 1.6; in experiment [5], 0; in experiment [6] it was 1.5. Besides, the values for the drug sensitivity score in experiment [7] and in experiment [8] were 0 and 3.4, respectively.
As for `O=C(Nc1cccnc1)N1CCC(Cc2cccc(Oc3ccc(C(F)(F)F)cn3)c2)CC1` [PF-3845], the drug sensitivity score stood at 4 in experiment [1]; 0 in experiment [2]; 0.1 in experiment [3]; 3.8 in experiment [4]; 0 in experiment [5]; 0 in experiment [6]. In addition, the drug sensitivity score was 0 in experiment [7] and 1 in experiment [8].
Consider `COc1ccccc1S(=O)(=O)Nc1ccc2c(c1)CN(C)C(=O)N2` [PFI-1], for which the drug sensitivity score turned out to be 0.1 in experiment [1]; 0.1 in experiment [2]; 6 in experiment [3]; 4 in experiment [4]; 4.7 in experiment [5]; 2.8 in experiment [6]. Besides, the drug sensitivity score in experiment [7] worked out at 4.1; in experiment [8], 6.2.
On to `CN1CCN(c2cc(C(=O)Nc3ccc4c(c3)-c3c(c(C(N)=O)nn3-c3ccc(F)cc3)CC4)c(Cl)cn2)CC1` [PHA 408], for which the drug sensitivity score in experiment [1] amounted to 5.3; in experiment [2], 4.2; in experiment [3], 1.1; in experiment [4], 0.5; in experiment [5] it was 5.7; in experiment [6] it was 0.1. Moreover, the drug sensitivity score in experiment [7] was determined as 5.2; in experiment [8], 3.4.
For `O=C(Nc1cc(Cl)cc2c1[nH]c1cnccc12)c1cccnc1` [PS-1145], the drug sensitivity score stood at 1.3 in experiment [1]; 0 in experiment [2]; 0.7 in experiment [3]; 0 in experiment [4]; 0 in experiment [5]; 0 in experiment [6]. In addition, the drug sensitivity score in experiment [7] and in experiment [8] was 0 throughout.
`COc1cc(Br)c(Nc2nc(-c3c(C)nc4ncccn34)cs2)c(Br)c1` [PTC-209]: the drug sensitivity score in experiment [1] turned out to be 7.6; in experiment [2], 4.2; in experiment [3] it was 11.2; in experiment [4], 13.7; in experiment [5] it was 5.1; in experiment [6] it was 4.6. The drug sensitivity score turned out to be 5 in experiment [7] and 12.4 in experiment [8].
